Test [1] has as its system scar formation in pigs. As to the kind of experiment: Remote effect of local s.c. fat injection on scar formation in pigs (RZL-012 vs Kythera/Kybella). The test is classed as in vivo. Particulars: pig; for Collagen fibers in scar-tissue (H & E histology): compared with Kythera scar tissue. The text has this:
The objective of this study is to evaluate the remote effect on local injection of RZL-012 of the invention (5-(3,6-dibromo-9H-carbazol-9-yl)-N,N,N-trimethylpentan-1-aminium) into the s.c. fat, on scar formation in pigs, compared with Kybella (an injectable formulation of Deoxycholate developed by Kythera) an agent that bluntly destroys s.c. fat.
• 1. Kythera preparation (according to published formulation): an aqueous solution of 5% Phosphatidylcholine, 4.75% Sodium deoxycholate and 0.9% Benzyl Alcohol. • 2. RZL-012 of the invention (5-(3,6-dibromo-9H-carbazol-9-yl)-N,N,N-trimethylpentan-1-aminium) of the invention preparation: 5.0% (w/v) RZL-012 in the below indicated formulation: […]
Eighty kilogram pigs were injected with either Kythera or RZL-012 of the invention preparation, into the s.c. fat (1 cm depth, 27 G needle), at 10 sites, divided into two clusters, on the right flank only. The injection at each site was of a volume of 0.5 ml. In addition, a cut through the s.c. fat was made at the midline of each pig at the right and at the left flank.
Animals were housed in the animal unit of Biotechfarm, Israel and fed on a diet weighing 2% of body weight (B.W.) per day divided to two meals, based on the last effective weekly body weighing.
After 2 months from the day of treatment, the animals were sacrificed; the scars on both sides were photographed before and after making a cross section in the middle of each scar. Thereafter, tissue samples of all cross-sections were formalin-fixed and processed for H & E histology staining.

Test [2] has as its system kidney fibrosis. As to the kind of experiment: Unilateral ureteral ligation (UUO) kidney fibrosis model. The test is classed as in vivo, rat. As to conditions: male SD rats, RZL-012 15 mg s.c. into fat at Day 14 and Day 42, sacrifice 8 weeks after UUO, vs Vehicle. The procedure: • Animals: Male SD Rats, 250 g. • Induction of kidney fibrosis: Overnight fasted rats were anesthetized (a mixture of Ketamine 20 mg/kg and Xylazin 2 mg/kg IP). The abdominal cavity was exposed via a midline incision up to 0.5-1 cm before penis about 3 cm along. Then the bladder was lifted out and epididymal fat was remoted. The left ureter was ligated at two points with 4-0 sutures. The wound was closed in layers with the same sutures. Then animals were returned to the cages. […] The tissue sections were stained with Masson-Trichrome which enable a distinction between fibrotic tissue (staining collagen fiber in Blue) and normal viable tissue (Purple-Red) (see FIG. 6C). • Quantification of kidney fibrosis: In order to quantify, in an unbiased way, the fibrotic response in RZL-treated vs. non-treated rats, the dimensions of the fibrotic layer surrounding aortic blood vessel, were measured. All aortic vessels in each affected kidney were analyzed in the following way: The vessel wall consists of two components, the usual Muscular layer and an outer layer, excessively rich in collagen, in these kidneys, hereby defined as “Adventitia” (FIG. 6C). The net width of the adventitia and that of the Muscular layer were calculated as follows: […]

As to `C[N+](C)(C)CCCCCn1c2ccc(Br)cc2c2cc(Br)ccc21` [RZL-012, 5-(3,6-dibromo-9H-carbazol-9-yl)-N,N,N-trimethylpentan-1-aminium], in test [1] (2 months after s.c. fat injection on right flank only, external view, compared with Kythera treated pig), the “Macroscopic view of the scar at the left, non-treated side” value was “much finer”. In addition, the “Scar tissue seen after a cross section through the scar (macroscopic)” value in test [1] (2 months sacrifice, cross-section through the middle of the scar, non-treated side (L)) is “no apparent scare tissue was observed”. Besides, in test [1] (2 months, H & E histology, careful measurement, RZL-012 vs Kythera treated pig), the “Difference in the scar tissue width” value is 4-5 times. For the same compound, the “Collagen fibers in scar-tissue (H & E histology)” value is given as “less collagen fibers” in test [1] (2 months, X20 objective magnification) and “less collagen fibers” in test [1] (2 months, X40 objective magnification). The “Width of fibrotic tissue (scar histology, H & E)” value in test [1] (2 months, both sides, X10 objective magnification, RZL-012 vs Kythera treated pig) is on record as “much thinner”. In test [2], the “Kidney fibrosis (Adventitia/Muscular layers ratio, Masson-Trichrome)” value is “significant inhibition of kidney fibrosis”.

For the origin of these results see patent US12097179B2, “Carbazole derivatives for the treatment of fibrotic diseases and related symptoms, and conditions thereof” (Raziel Therapeutics Ltd., priority 2015, dated 2024).
